Data: patent US9481648B2, “Kinase inhibitors” (Respivert Limited, priority 2013, dated 2016)

What was measured:
GSK 3α = GSK 3α (Homo sapiens (Human), UniProt P49840); test: GSK 3α enzyme inhibition (FRET, Z-LYTE; Method 2); assay type: biochemical; settings: read-out: IC50 Values for Enzyme Inhibition GSK3α
In short: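 Phosphorylation was taken from the donor (coumarin) to acceptor (fluorescein) emission ratio after 1 h protease development, which cleaves only unphosphorylated peptide. Before that, peptide (8 μM stock) plus ATP (40 μM stock) reacted 1 h. This followed a 105 min RT preincubation of GSK3-α with compound stocks of 10–0.01 μg/mL.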

p38 MAPKα (MAPK14) = p38 MAPKα (MAPK14) (Homo sapiens (Human), UniProt Q16539); test: p38 MAPKα enzyme inhibition (FRET, Z-LYTE; Method 2); assay type: biochemical
p38 MAPKα (MAPK14), sequence (Q16539 whole entry): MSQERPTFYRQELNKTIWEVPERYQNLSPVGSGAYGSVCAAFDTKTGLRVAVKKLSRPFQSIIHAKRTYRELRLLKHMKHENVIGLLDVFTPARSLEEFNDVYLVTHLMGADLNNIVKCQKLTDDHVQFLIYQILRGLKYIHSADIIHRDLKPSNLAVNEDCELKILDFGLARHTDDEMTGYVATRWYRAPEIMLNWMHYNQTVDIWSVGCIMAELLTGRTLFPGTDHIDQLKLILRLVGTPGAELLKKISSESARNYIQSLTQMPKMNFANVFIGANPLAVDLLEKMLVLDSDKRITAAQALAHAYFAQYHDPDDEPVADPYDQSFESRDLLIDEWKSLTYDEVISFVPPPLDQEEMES
Experimental: (§1) The enzyme inhibitory activities of compounds disclosed herein are determined by FRET using synthetic peptides labelled with both donor and acceptor fluorophores (Z-LYTE, Invitrogen Ltd., Paisley, UK).
The inhibitory activities of test compounds against the p38 MAPKα isoform (MAPK14: Invitrogen) are evaluated indirectly by determining the level of activation\phosphorylation of the down-stream molecule, MAPKAP-K2. The p38 MAPKα protein (80 ng/mL, 2.5 μL) is mixed with the test compound (2.5 μL of either 4 μg/mL, 0.4 μg/mL, 0.04 μg/mL or 0.004 μg/mL) for 2 hr at RT. […] The mixture is incubated for 1 hr at RT. Development reagent (protease, 5 μL) is added for 1 hr prior to detection in a fluorescence microplate reader (Vanoskan® Flash, ThermoFisher Scientific).
(§2) In all cases, the site-specific protease cleaves non-phosphorylated peptide only and eliminates the FRET signal. Phosphorylation levels of each reaction are calculated using the ratio of coumarin emission (donor) over fluorescein emission (acceptor), for which high ratios indicate high phosphorylation and low ratios indicate low phosphorylation levels.

[1] = system: β-catenin in d-U937 cells; test: Accumulation of β catenin in d-U937 cells (assay m); assay type: cell-based, human
Experimental: U937 cells, a human monocytic cell line, are differentiated into macrophage-type cells by incubation with PMA (100 ng/mL) for between 48 to 72 hr. The cells are then incubated with either final concentrations of test compound or vehicle for 18 hr. The induction of β-catenin by the test compounds is stopped by replacing the media with 4% formaldehyde solution. Endogenous […] is neutralised by incubating with quenching buffer (100 μL, 0.1% sodium azide, 1% H2O2 in PBS with 0.05% Tween-20) for 20 min. The cells are washed with washing buffer (200 μL; PBS containing 0.05% Tween-20) and incubated with blocking solution (200 μL; 5% milk in PBS) for 1 hr, re-washed with washing buffer (200 μL) and then incubated overnight with anti-β-catenin antibody solution (50 μL) in 1% BSA/PBS (BD, Oxford, UK).
After washing with washing buffer (3×200 μL; PBS containing 0.05% Tween-20), cells are incubated with a HRP-conjugated secondary antibody solution (100 μL) in 1% BSA/PBS (Dako, Cambridge, UK) and the resultant signal is determined colourimetrically (OD: 450 nm with a reference wavelength of 655 nm) using TMB substrate (50 μL; R&D Systems, Abingdon, UK). This reaction is stopped by addition of 1N H2SO4 solution (50 μL). Cells are then washed with washing buffer and 2% crystal violet solution (50 μL) is applied for 30 min. After washing with washing buffer (3×200 μL), 1% SDS (100 μL) is added to each well and the plates are shaken lightly for 1 hr prior to measuring the absorbance at 595 nm (Varioskan® Flash, Thermo-Fisher Scientific).
The measured OD450-655 readings are corrected for cell number by dividing the OD450-655 by the OD595 readings.

Syk = Syk (Homo sapiens (Human), UniProt P43405); test: Syk enzyme inhibition (FRET, Z-LYTE); assay type: biochemical
Experimental: as §1
(§3) The relevant enzyme (3000 ng/mL or 2000 ng/mL respectively, 2.5 μL) is incubated with the test compound (either 1 μg/mL, 0.1 μg/mL, 0.01 μg/mL, or 0.001 μg/mL, 2.5 μL each) for 2 hr at RT. The FRET peptides (8 μM, 2.5 μL), and appropriate ATP solutions (2.5 μL, 800 μM for c-Src, and 60 μM ATP for Syk) are then added to the enzymes/compound mixtures and the mixture incubated for 1 hr. Development reagent (protease, 5 μL) is added for 1 hr prior to detection in a fluorescence microplate reader (Varioskan® Flash, ThermoFisher Scientific).
as §2

c-Src = c-Src (Homo sapiens (Human), UniProt P12931); test: c-Src enzyme inhibition (FRET, Z-LYTE); assay type: biochemical
c-Src, sequence (P12931 whole entry, looked up): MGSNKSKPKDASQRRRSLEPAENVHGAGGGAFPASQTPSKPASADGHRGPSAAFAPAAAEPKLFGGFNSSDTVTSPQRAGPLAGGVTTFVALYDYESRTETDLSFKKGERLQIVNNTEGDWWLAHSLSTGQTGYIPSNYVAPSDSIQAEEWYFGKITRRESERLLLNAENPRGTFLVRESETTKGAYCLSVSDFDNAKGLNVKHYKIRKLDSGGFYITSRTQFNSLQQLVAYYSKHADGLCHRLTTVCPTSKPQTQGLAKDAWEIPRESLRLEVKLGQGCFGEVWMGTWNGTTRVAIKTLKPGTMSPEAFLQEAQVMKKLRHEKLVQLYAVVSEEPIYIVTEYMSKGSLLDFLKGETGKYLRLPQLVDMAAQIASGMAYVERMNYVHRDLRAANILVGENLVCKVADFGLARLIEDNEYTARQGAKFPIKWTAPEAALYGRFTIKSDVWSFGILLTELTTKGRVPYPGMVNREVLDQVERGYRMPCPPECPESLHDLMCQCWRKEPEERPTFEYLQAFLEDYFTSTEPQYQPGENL
Experimental: as §1, §3, §2

GSK 3α, sequence (P49840 whole entry): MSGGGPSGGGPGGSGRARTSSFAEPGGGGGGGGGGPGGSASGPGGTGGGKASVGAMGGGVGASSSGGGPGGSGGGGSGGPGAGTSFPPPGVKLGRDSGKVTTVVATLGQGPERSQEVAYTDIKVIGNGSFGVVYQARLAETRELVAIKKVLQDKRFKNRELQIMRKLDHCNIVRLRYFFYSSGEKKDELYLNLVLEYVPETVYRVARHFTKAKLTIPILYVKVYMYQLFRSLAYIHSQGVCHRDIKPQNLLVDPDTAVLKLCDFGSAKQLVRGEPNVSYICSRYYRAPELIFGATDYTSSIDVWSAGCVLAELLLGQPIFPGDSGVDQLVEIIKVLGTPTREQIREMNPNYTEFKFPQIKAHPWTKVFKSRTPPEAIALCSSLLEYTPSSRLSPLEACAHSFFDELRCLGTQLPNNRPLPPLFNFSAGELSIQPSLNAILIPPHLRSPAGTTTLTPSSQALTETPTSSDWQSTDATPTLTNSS

Row | SMILES | IC50 (GSK 3α) [nM] | IC50 (p38 MAPKα (MAPK14)) [nM] | IC50 (Syk) [nM] | IC50 (c-Src) [nM] | % β-catenin induction ([1]; test compound 1 μg/mL) [%] | % β-catenin induction ([1]; test compound 5 μg/mL) [%] | % β-catenin induction ([1]; test compound 10 μg/mL) [%]
1 | C#Cc1cc(Nc2cc(Oc3ccc(NC(=O)Nc4cc(C(C)(C)C)cc(NS(C)(=O)=O)c4OC)c4ccccc34)ccn2)cc(C(=O)NCCOCCOC)c1 [Example 52] | 12600 | 277 | 1260 | 100 | 2 | 9 | 1
2 | C#Cc1cc(Nc2cc(Oc3ccc(NC(=O)Nc4cc(C(C)(C)C)cc(NS(C)(=O)=O)c4OC)c4ccccc34)ccn2)cc(C(=O)NCCOCCOCCOC)c1 [Example 54] | 11900 | 140 | 1190 | 42 | 5 | 5 | −2
3 | C#Cc1cc(Nc2cc(Oc3ccc(NC(=O)Nc4cc(C(C)(C)C)cc(NS(C)(=O)=O)c4OC)c4ccccc34)ccn2)cc(C(=O)N[C@@H](C)COCCOCCOC)c1 [Example 67] | 11700 | 245 | 1170 | 56 | 3 | 2 | −2
4 | CNC(=O)c1cc(C(C)(C)C)cc(NC(=O)Nc2ccc(Oc3ccnc(Nc4cc(OC)cc(OCCOCCOCCOC)c4)n3)c3ccccc23)c1OC [Example 13, 5-(tert-Butyl)-2-methoxy-3-(3-(4-((2-((3-methoxy-5-(2-(2-(2-methoxyethoxy)ethoxy)-ethoxy)phenyl)amino)pyrimidin-4-yl)oxy)naphthalen-1-yl)ureido)-N-methylbenzamide] | 824 | 28 | 35 | 9 | 7 | 34 | 26
5 | COCCOCCOCCOc1cc(Nc2cc(Oc3ccc(NC(=O)Nc4cc(C(C)(C)C)cc(C(=O)NCCN(C)C)c4OC)c4ccccc34)ccn2)cc(OC)c1 [Example 76, 5-(tert-Butyl)-N-(2-(dimethylamino)ethyl)-2-methoxy-3-(3-(4-((2-((3-methoxy-5-(2-(2-(2-methoxyethoxy)ethoxy)ethoxy)phenyl)amino)pyridin-4-yl)oxy)naphthalen-1-yl)ureido)-benzamide] | 4790 | 159 | 35 | 31 | 2 | −1 | −13
6 | COc1cc(CO)cc(Nc2cc(Oc3ccc(NC(=O)Nc4cc(C(C)(C)C)cc(C(N)=O)c4OC)c4ccccc34)ccn2)c1 [84(g), 5-tert-Butyl-3-[[4-[[2-[3-(hydroxymethyl)-5-methoxyanilino]-4-pyridyl]oxy]-1-naphthyl]carbamoylamino]-2-methoxybenzamide] | 2280 | 86 | 137 | 28 | 1 | 8 | 7
7 | C#Cc1cc(Nc2cc(Oc3ccc(NC(=O)Nc4cc(C(C)(C)C)cc(C(=O)NC)c4OC)c4ccccc34)ccn2)cc(C(=O)NCCN2CCOCC2)c1 [Example 39, 5-(tert-Butyl)-3-(3-(4-((2-((3-ethynyl-5-((2-morpholinoethyl)carbamoyl)phenyl)amino)-pyridin-4-yl)oxy)naphthalen-1-yl)ureido)-2-methoxy-N-methylbenzamide] | 1600 | 140 | 571 | 29 | −11 | −12 | −18
8 | COCCOCCOCCOc1cc(Nc2nccc(Oc3ccc(NC(=O)Nc4cc(C(C)(C)C)cc(C(=O)NC5COC5)c4OC)c4ccccc34)n2)cc(OC)c1 [Example 51, 5-(tert-Butyl)-2-methoxy-3-(3-(4-((2-((3-methoxy-5-(2-(2-(2-methoxyethoxy)ethoxy)-ethoxy)phenyl)amino)pyrimidin-4-yl)oxy)naphthalen-1-yl)ureido)-N-(oxetan-3-yl)-benzamide] | 977 | 170 | 49 | 15 | 3 | 33 | 29
9 | C#Cc1cc(Nc2cc(Oc3ccc(NC(=O)Nc4cc(C(N)=O)cc(C(C)(C)C)c4)c4ccccc34)ccn2)cc(C(=O)NCCOCCOCCOC)c1 [Example 62, 3-((4-((4-(3-(3-(tert-Butyl)-5-carbamoylphenyl)ureido)naphthalen-1-yl)oxy)vridin-2-yl)amino)-5-ethynyl-N-(2-(2-(2-methoxyethoxy)ethoxy)ethyl)benzamide] | 10600 | 32 | 1320 | 44 | – | – | –

Further lines, with some results ahead:

Row | IC50 (GSK 3α) [nM] | IC50 (p38 MAPKα (MAPK14)) [nM] | IC50 (Syk) [nM] | IC50 (c-Src) [nM] | SMILES | % β-catenin induction ([1]; test compound 1 μg/mL) [%] | % β-catenin induction ([1]; test compound 5 μg/mL) [%] | % β-catenin induction ([1]; test compound 10 μg/mL) [%]
10 | 748 | 33 | 29 | 6 | COCCOCCOCCOc1cc(Nc2nccc(Oc3ccc(NC(=O)Nc4cc(C(C)(C)C)cc(C(N)=O)c4OC)c4ccccc34)n2)cc(OC)c1 [Example 20, 5-(tert-Butyl)-2-methoxy-3-(3-(4-((2-((3-methoxy-5-(2-(2-(2-methoxyethoxy)ethoxy)-ethoxy)phenyl)amino)pyrimidin-4-yl)oxy)naphthalen-1-yl)ureido)benzamide] | 4 | 31 | 29
11 | 2160 | 145 | 455 | 39 | COCCOCCOCCOCCOCCOCCOCCOc1cc(Nc2cc(Oc3ccc(NC(=O)Nc4cc(C(C)(C)C)cc(NS(C)(=O)=O)c4OC)c4ccccc34)ccn2)cc(OC)c1 [Example 45, N-(3-(3-(4-((2-((3-(2,5,8,11,14,17,20-Heptaoxadocosan-22-yloxy)-5-methoxyphenyl)-amino)pyridin-4-yl)oxy)naphthalen-1-yl)ureido)-5-(tert-butyl)-2-methoxyphenyl)methanesulfonamide] | −4 | −7 | −14
12 | 1530 | 147 | 121 | 13 | CCOc1c(NC(=O)Nc2ccc(Oc3ccnc(Nc4cc(OC)cc(OCCOCCOCCOC)c4)n3)c3ccccc23)cc(C(C)(C)C)cc1NS(C)(=O)=O [Example 69] | 10 | 17 | 25
13 | 1310 | 551 | 63 | 18 | COCCOCCOCCOc1cc(Nc2nccc(Oc3ccc(NC(=O)Nc4cc(C(C)(C)C)cc(NS(C)(=O)=O)c4OC)c(Cl)c3Cl)n2)cc(OC)c1 [Example 10, N-(5-(tert-Butyl)-3-(3-(2,3-dichloro-4-((2-((3-methoxy-5-(2-(2-(2-methoxyethoxy)ethoxy)-ethoxy)phenyl)amino)pyrimidin-4-yl)oxy)phenyl)ureido)-2-methoxyphenyl)-methanesulfonamide] | 12 | 42 | 39
